{
  "source": "patent US20240166726A1",
  "about": "“UNIVERSAL TARGETING STRATEGY TO INHIBIT REPLICATION OF ZIKV AND FLAVIVIRUSES” (Sanford Burnham Prebys Medical Discovery Institute, priority 2022, published 2024)",
  "key": {"ZIKV NS2B-NS3pro [1]": {"target": "T1, ZIKV NS2B-NS3pro (Zika virus, UniProt A0A024B7W1)", "T1 construct": "hydrophilic cytoplasmic portion of NS2B (residues 48-94) was linked to the NS3 protease domain; was linked to the NS3 protease domain via a 9-residue linker L; His tag (N, cleaved yes); made in house; host or cells: E. coli BL21 (DE3) Codon Plus", "T1 sequence (A0A024B7W1 1503-1680)": "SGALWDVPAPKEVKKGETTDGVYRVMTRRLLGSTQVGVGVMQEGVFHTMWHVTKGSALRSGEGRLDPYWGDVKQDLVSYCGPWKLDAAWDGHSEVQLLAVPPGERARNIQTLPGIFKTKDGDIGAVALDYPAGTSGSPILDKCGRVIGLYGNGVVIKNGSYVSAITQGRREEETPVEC", "T1 sequence (A0A024B7W1 1420-1466)": "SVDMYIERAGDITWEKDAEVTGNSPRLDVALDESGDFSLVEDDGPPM", "assay": "Fluorescent proteinase activity assay (Pyr-RTKR-AMC cleavage)", "format": "biochemical", "experimental": "Fluorescent proteinase activity assay and IC50 determination. The peptide cleavage activity assays with purified ZIKV NS2B-NS3pro polypeptides were performed in 0.2 ml TBS containing 20% glycerol and 0.005% Brij 35 containing 20 μM of the cleavage peptide pyroglutamic acid Pyr-Arg-Thr-Lys-Arg-7-amino-4-methylcoumarin (Pyr-RTKR-AMC) and 10 nM enzyme. The reaction velocity was monitored continuously at λex=360 nm and λem=465 nm on a Tecan fluorescence spectrophotometer (Männedorf, Switzerland). To determine the IC50 values of the inhibitory compounds, ZIKV NS2B-NS3pro constructs (20 nM) were preincubated for 30 min at 20° C. with various concentrations of compounds in 0.1 ml TBS containing 20% glycerol and 0.005% Brij 35. Pyr-RTKR-AMC substrate (20 μM) was then added in 0.1 ml of the same buffer. IC50 values were calculated by determining the compound concentration required to obtain 50% of the maximal inhibition of NS2B-NS3pro activity against Pyr-RTKR-AMC. GraphPad Prism was used as fitting software. All assays were performed in triplicate in 96-well plates.\nFluorogenic substrate cleavage assays were performed to test whether binding of RNA interferes with the proteolytic activity of NS2B-NS3pro."}, "WNV NS2B-NS3pro": {"target": "T2, WNV NS2B-NS3pro (West Nile virus, UniProt P06935)", "T2 construct": "comprises an NS2B polypeptide that associates with a proteolytic N-terminal fragment of NS3 polypeptide (NS3pro); a proteolytic N-terminal fragment of NS3 polypeptide (NS3pro) to form NS2B-NS3pro", "T2 sequence (P06935 1371-1501)": "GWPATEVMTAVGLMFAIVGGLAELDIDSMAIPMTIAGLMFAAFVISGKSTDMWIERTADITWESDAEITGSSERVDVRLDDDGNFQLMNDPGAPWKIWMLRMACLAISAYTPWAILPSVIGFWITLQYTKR", "T2 sequence (P06935 1502-1679)": "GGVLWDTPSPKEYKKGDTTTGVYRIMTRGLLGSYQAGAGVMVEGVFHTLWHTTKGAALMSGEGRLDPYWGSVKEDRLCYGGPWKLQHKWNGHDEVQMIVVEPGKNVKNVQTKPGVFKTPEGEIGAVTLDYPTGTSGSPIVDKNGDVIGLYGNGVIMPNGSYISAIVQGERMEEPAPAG", "assay": "Inhibition of NS2B-NS3pro proteolysis, WNV", "format": "biochemical", "settings": "in vitro", "from_the_text": "(§1) The open conformation of NS2B-NS3pro is formed by rearrangement/dissociation of the NS2B cofactor from the C-terminal half of NS3pro, leading to a loss of proteolytic activity. NS2B dissociation uncovers a hydrophobic cleft in NS3pro, which presents a druggable pocket that is relatively conserved between the flaviviruses. Allosteric inhibitors of ZIKV, WNV, and DENV2 NS2B-NS3pro were designed in silico to bind a region of NS2B-NS3pro distant from the proteolytic active site. […] RNA binding to ZIKV NS2B-NS3pro was tested with a sub-library of these inhibitors, and some compounds were potent inhibitors of RNA binding to ZIKV NS2B-NS3pro, as depicted in FIG. 7. In Top of FIG. 7, small molecule allosteric inhibitors (10 μM) targeting open/super-open conformations of ZIKV NS2B-NS3pro block ssRNA binding. Fluorescent polarization (%) using FAM labeled ssRNA (20 poly-rU). * p<0.05, […], *** p<0.0005, […] by two-tailed unpaired t-test with Welch's correction. In Bottom of FIG. 7, IC50 for inhibition of ZIKV, WNV, and DENV2 NS2B-NS3pro proteolysis by the indicated inhibitors. […] NSC86314 was previously shown to inhibit WNV and DENV2 replicons in cell-based assays with IC50 values of<50 μM. […]"}, "DENV2 NS2B-NS3pro": {"target": "T3, DENV2 NS2B-NS3pro (Dengue virus type 2, UniProt P29990)", "T3 construct": "comprises an NS2B polypeptide that associates with a proteolytic N-terminal fragment of NS3 polypeptide (NS3pro); a proteolytic N-terminal fragment of NS3 polypeptide (NS3pro) to form NS2B-NS3pro", "T3 sequence (P29990 1346-1475)": "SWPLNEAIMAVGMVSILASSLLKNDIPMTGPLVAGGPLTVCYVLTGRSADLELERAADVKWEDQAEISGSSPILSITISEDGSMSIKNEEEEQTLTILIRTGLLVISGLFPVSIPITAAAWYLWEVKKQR", "T3 sequence (P29990 1476-1653)": "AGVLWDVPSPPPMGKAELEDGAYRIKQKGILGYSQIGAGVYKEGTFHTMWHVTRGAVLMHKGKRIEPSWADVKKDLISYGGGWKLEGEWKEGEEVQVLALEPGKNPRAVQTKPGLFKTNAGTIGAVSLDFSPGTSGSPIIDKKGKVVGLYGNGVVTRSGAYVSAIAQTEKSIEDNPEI", "assay": "Inhibition of NS2B-NS3pro proteolysis, DENV2", "format": "biochemical", "settings": "in vitro", "from_the_text": "as §1"}, "WNV replicons": {"tested_on": "WNV replicons", "settings": "cell-based assays, previously shown; cited from earlier work"}, "DENV2 replicons": {"tested_on": "DENV2 replicons", "settings": "cell-based assays, previously shown; cited from earlier work"}, "ZIKV NS2B-NS3pro [2]": {"target": "T1, ZIKV NS2B-NS3pro", "assay": "Inhibition of ssRNA binding to NS2B-NS3pro by inhibitors (RNA FP assay)", "from_the_text": "The DNA constructs were cloned into pGEX6P1 plasmid using BamH1 and EcoR1 cleavage sites, resulting in fusion of a GST tag at the N-terminus of the NS2B cofactor. E. coli were transformed with the individual recombinant constructs, and protein production was induced and the cells were disrupted as described above. The supernatant fraction containing the GST-tagged constructs were loaded onto Protino Glutathione Agarose 4B beads and impurities were removed by washing with TBS. To cleave the GST tag from the viral protease, the beads were co-incubated with 3C protease. The NS2B-NS3pro constructs were then additionally purified by gel filtration on an S200 26/60 column equilibrated with TBS. Purity of the purified construct was analyzed using SDS-PAGE followed by Coomassie staining. Purified protease was concentrated to approximately 10 mg/ml using 10 kDa-cutoff concentrators, flash frozen in small aliquots, and stored at −80° C. […]\nFluorescence polarization assay of RNA/ssDNA binding to ZIKV NS2B-NS3 protease. Binding between purified recombinant ZIKV NS2B-NS3pro constructs and either RNA or ssDNA was assessed using a fluorescence polarization (FP) assay conducted in 0.1 ml of TBS containing 1 mM MgCl2 at 25° C. for 1 h. […] Polarization was monitored on a Bruker Daltonics fluorescence spectrophotometer. […]"}},
  "data": [
    {"compound": "Nc1cc(N)c(N=Nc2ccc(S(=O)(=O)Nc3nccs3)cc2)cc1N=Nc1ccc(S(=O)(=O)Nc2nccs2)cc1", "note": "[NSC86314]", "values": [
      {"measurement": "IC50, NS2B-NS3pro from ZIKV", "setting": "ZIKV NS2B-NS3pro [1]; in vitro", "result": "low to sub-micromolar"},
      {"measurement": "IC50, NS2B-NS3pro from WNV", "setting": "WNV NS2B-NS3pro", "result": "low to sub-micromolar"},
      {"measurement": "IC50, NS2B-NS3pro from DENV", "setting": "DENV2 NS2B-NS3pro", "result": "low to sub-micromolar"},
      {"measurement": "IC50", "setting": "WNV replicons", "result": "< 50", "unit": "µM"},
      {"measurement": "IC50", "setting": "DENV2 replicons", "result": "< 50", "unit": "µM"}
    ]},
    {"compound": "O=C(O)c1cc(/N=N/c2ccc(S(=O)(=O)Nc3nccs3)cc2)ccc1O", "note": "[NSC114428]", "values": [
      {"measurement": "Inhibition of proteolytic activity of ZIKV protease", "setting": "ZIKV NS2B-NS3pro [1]; FIG. 7", "result": "low μM range"},
      {"measurement": "Inhibition of RNA binding", "setting": "ZIKV NS2B-NS3pro [2]; FIG. 7", "result": "low μM range"}
    ]},
    {"compound": "aprotinin", "values": [
      {"measurement": "RNA binding to purified NS2B-NS3pro-inhibitor complex", "setting": "ZIKV NS2B-NS3pro [2]; closed conformation induced by substrate-mimicking inhibitor", "result": "no RNA binding"}
    ]}
  ]
}
